# Data from patent US12510524B2, “Compositions containing cannabinoid analog conjugates and methods of use” (priority 2014, dated 2025).
# pIC50: −log10 of the molar value. “And” between values parts separate entries of the source, which are not always exact repeats. Equal entries are not always repeated. Where two headings read alike, the source gives them in different places.
# Key:
# [1] = system: cleaved PARP in RC cells; assay: Immunoblot of apoptosis induction in RC cells; assay type: cell-based; conditions: 24 hrs
# [2] = system: CJ DLBCL cancer cell line; assay: MTS cell viability assay, CJ; assay type: cell-based; conditions: read-out: IC50 on cell viability
# Description: (§4) The formazan dye is quantified by measuring the absorbance at 490-500 nm.
# [3] = system: HB DLBCL cell line; assay: MTS cell viability assay, HB; assay type: cell-based; conditions: read-out: IC50 on cell viability
# [4] = system: EJ DLBCL cancer cell line; assay: MTS cell viability assay, EJ; assay type: cell-based; conditions: read-out: IC50 on cell viability
# Description: as §4
# [5] = system: DLBCL cancer cell lines; assay: MTS cell viability assay, DLBCL cell lines as a group; assay type: cell-based; conditions: for effect on the viability of DLBCL cancer cell lines: EJ, U2932, CJ and LY19, 72 h incubation, FIGS. 13-16; for pIC50: read-out: Average IC50
# Description: (§1) The effects of SR141716 and VYR206 were analyzed. MTS assays for cell viability (72 h incubation) were performed on diffuse large B-cell lymphoma (DLBCL) cells—LR, MS, RC and DOHH2 (FIGS. 18A-18D) and mantle cell lymphoma (MCL) cells—Jeko, Mino, Rec-1 and JMP1 (FIGS. 19A-19D).
# [6] = system: Ly-3 DLBCL cell line; assay: MTS cell viability assay, Ly-3; assay type: cell-based; conditions: read-out: IC50 on cell viability
# Description: as §4
# [7] = system: U2932 DLBCL cancer cell line
# Description: as §4
# [8] = system: RC DLBCL cell line; assay: MTS cell viability assay, RC; assay type: cell-based; conditions: drug concentration 50 μM, 72 h
# Description: as §1
# [9] = system: LY19 DLBCL cancer cell line; assay: MTS cell viability assay, LY19; assay type: cell-based; conditions: for pIC50: read-out: IC50 on cell viability
# Description: as §4
# [10] = system: LP DLBCL cell line; assay: MTS cell viability assay, LP; assay type: cell-based; conditions: read-out: IC50 on cell viability
# Description: as §4
# [11] = system: LR DLBCL cell line; assay: MTS cell viability assay, LR; assay type: cell-based; conditions: for pIC50: read-out: IC50 on cell viability
# Description: as §1
# [12] = system: WP DLBCL cell line; assay: MTS cell viability assay, WP; assay type: cell-based; conditions: read-out: IC50 on cell viability
# [13] = system: DOHH2 DLBCL cell line; assay: MTS cell viability assay, DOHH2; assay type: cell-based; conditions: Homo sapiens, DOHH-2, 72 h
# Description: as §1
# [14] = system: HF DLBCL cell line; assay: MTS cell viability assay, HF; assay type: cell-based; conditions: read-out: IC50 on cell viability
# Description: as §4
# [15] = system: LY-10 DLBCL cell line; assay: MTS cell viability assay, LY-10; assay type: cell-based; conditions: read-out: IC50 on cell viability
# Description: as §4
# [16] = system: mantle cell lymphoma (MCL; 8 cell lines); assay: Cell viability, 8 MCL cell lines (Example 6); assay type: cell-based; conditions: lower-dose 10-40 μM; steep initial slopes especially in Rec-1 and SP-53; FIG. 17C
# Description: (§2) In Examples 6-8, N4-conjugated compounds were analyzed. The effects of CBi inverse agonist SR141716 and its conjugated form-VYR206 were analyzed using diffuse large B-cell lymphoma (DLBCL; 16 cancer cell lines; FIGS. 17A and 17B) and mantle cell lymphoma (MCL; 8 cell lines; FIGS. 17C and 17D) cancer cells. […] Diffuse large B-cell lymphoma cancer cells were resistant to lower VYR206 concentration (<50 μM) (FIG. 17B). […] Rimonabant by itself has severe adverse effects in patients with high or chronic dosing. Curtailing or modifying the potency may help to reduce adverse effects while still providing a therapeutic effect against cancerous cells.
# [17] = system: diffuse large B-cell lymphoma (DLBCL; 16 cancer cell lines); assay: Cell viability, 16 DLBCL cancer cell lines (Example 6); assay type: cell-based; conditions: 16 DLBCL cell lines; compared with VYR206; FIG. 17A
# Description: as §2
# [18] = system: McA DLBCL cell line; assay: MTS cell viability assay, McA; assay type: cell-based; conditions: 72 h, read-out: IC50 on cell viability
# Description: as §4
# [19] = system: MS DLBCL cell line; assay: MTS cell viability assay, MS; assay type: cell-based; conditions: 72 h
# Description: as §1
# [20] = system: HT cancer cell line; assay: High throughput screening of cell viability, HT; assay type: cell-based; conditions: 72-hour incubation
# Description: (§3) High throughput screening ([…]) assessment of cell viability in 16 DLBCL (FIGS. 20A and 20B) and 8 MCL (FIG. 20C) cell lines were assessed following treatment a 72-hour incubation of the cell lines with cannabidiol, which was obtained as CBD in a coconut oil extract. Cell viability, 90% of the all cells tested, remained viable in a concentration range of 0-5 μM CBD. Complete cell death was obtained at 25 μM CBD concentration only for two cancer cell lines, HT and EJ (FIG. 20B); 50 μM CBD concentration gave a complete cell death viability in seven cell lines MZ, HF, HB, CJ, MS, Toledo and EJ (FIGS. 20A and 20B).
# [21] = system: MCA cell line; assay: High throughput screening of cell viability, MCA; assay type: cell-based; conditions: 72-hour incubation, read-out: concentration range at which 50% cell viability was reached
# Description: as §3
# [22] = system: LP cell line; assay: High throughput screening of cell viability, LP; assay type: cell-based; conditions: 72-hour incubation, read-out: concentration range at which 50% cell viability was reached
# Description: as §3
# [23] = system: MT cell line; assay: High throughput screening of cell viability, MT; assay type: cell-based; conditions: 72-hour incubation, read-out: concentration range at which 50% cell viability was reached
# Description: as §3
# [24] = system: MS cell line; assay: High throughput screening of cell viability, MS; assay type: cell-based; conditions: 72-hour incubation
# Description: as §3
# [25] = system: EJ cancer cell line; assay: High throughput screening of cell viability, EJ; assay type: cell-based; conditions: 72-hour incubation
# Description: as §3
# [26] = system: mantle cell lymphoma cancer cells (Mino, Jeko, SP53, Maver-1Z138, JMP-1, Rec-1 and PF-1); assay: High throughput screening of cell viability, MCL cell lines; assay type: cell-based; conditions: concentration range from 15 μM to 25 μM; FIG. 20C
# Description: as §3
# [27] = system: MZ cell line; assay: High throughput screening of cell viability, MZ; assay type: cell-based; conditions: 72-hour incubation
# Description: as §3
# [28] = system: DLBCL (RC) and MCL (Mino) cancer cell lines; assay: MTS cell viability assay, CBD alone and in combination with chemotherapeutics; assay type: cell-based; conditions: at the given amounts, 72 h incubation
# Description: as §4
# Cell viability assays (MTS) were performed to determine the viability of DLBCL (RC) and MCL (Mino) cancer cell lines in vitro (72 hour-incubation) in the presence of CB2-agonist—CBD alone and in combination with ibrutinib. Cell viability assays (MTS) were performed to determine the viability of DLBCL (RC) and MCL (Mino) cancer cell lines in vitro (72 h incubation) in the presence of CBD alone and in combination with zanubrutinib (BGB). Cell viability assays (MTS) were performed to determine the viability of DLBCL (RC) and MCL (Mino) cancer cell lines in vitro (72 h incubation) in the presence of CBD alone and in combination with carfilzomib (CFZ). Cell viability assays (MTS) were performed to determine the viability of DLBCL (RC) and MCL (Mino) cancer cell lines in vitro (72 h incubation) in the presence CBD alone and in combination with tumorex (TMX).
# [29] = system: cleaved caspase 3 and cleaved PARP in BJAB cells; assay: Western analysis of apoptosis induction in BJAB cells; assay type: cell-based; conditions: 24 hrs
# Description: No activation of apoptosis in untreated cells (control not shown). […] At 12.5 μM CBD, there was significant apoptosis induction in cleaved PARP expression. The effect of CBD on both cleaved caspase 3 (FIG. 27C) and cleaved PARP expression (FIG. 27D) was analyzed using Western analysis. Expression of the β-actin (FIG. 27E) was used as a control for equal loading.
# [30] = system: CJ cell line; assay: High throughput screening of cell viability, CJ; assay type: cell-based; conditions: 72-hour incubation
# Description: as §3
# [31] = system: HF cell line; assay: High throughput screening of cell viability, HF; assay type: cell-based; conditions: 72-hour incubation
# Description: as §3
# [32] = system: Toledo cell line; assay: High throughput screening of cell viability, Toledo; assay type: cell-based; conditions: 72-hour incubation
# Description: as §3
# [33] = system: CB2 receptor expression; assay: Blot analysis of CB2 expression in DLBCL and MCL cell lines; assay type: cell-based; conditions: FIGS. 21B and 21C
# Description: The effect of different amounts of combinations of VYR206 and CBD on various DLBCL and MCL cell lines were evaluated by immunoblot analysis. Immunoblot analysis of cell lysates from various DLBCL and MCL cell lines was performed to show effects on expression of CBi and CB2 receptors with the expression of β-actin as the control for sample loading (FIGS. 21A-21D), with each cell line identified by respective initials.
# [34] = system: Cancer cell line DOHH2; assay: High throughput screening of cell viability, DOHH2; assay type: cell-based; conditions: lower concentration (0-25 μM)
# Description: as §3
# [35] = system: 16 DLBCL and 8 MCL cell lines; assay: High throughput screening of cell viability, all cell lines; assay type: cell-based; conditions: all cells tested; concentration range 0-5 μM; 72-hour incubation
# Description: as §3
# [36] = system: HB cell line; assay: High throughput screening of cell viability, HB; assay type: cell-based; conditions: 72-hour incubation
# Description: as §3
# [37] = read-out: concentration range at which 50% cell viability was reached
smiles,measurement,setting,value
"C=C(C)[C@@H]1CCC(C)=C[C@H]1c1c(O)cc(CCCCC)cc1OCCCN1CCCNCCNCCCNCC1 [VYC203, N4-Cannabidiol]",cleaved PARP expression,"[1]; 6.25, 12.5, 25 and 50 μM",Concentration-dependent increase
"Cc1c(C(=O)NN2CCCCC2)nn(-c2ccc(Cl)cc2Cl)c1-c1ccc(Cl)cc1 [SR141716, N-(Piperidin-1-yl)-5-(4-chlorophenyl)-1-(2,4-dichlorophenyl)-4-methyl-1H-pyrazole-3-carboxamide]",pIC50,[2]; 72 h,4.87
same,pIC50,[3]; 72 h,4.53
same,pIC50,[4]; 72 h,4.69
same,effect on the viability of DLBCL cancer cell lines,[5]; MTS,significant results depending on the specific cell line
same,"effectiveness on DLBCL, comparison of the two drugs","[5]; LR, MS, RC and DOHH2, MTS, 72 h",more effective to DLBCL than VYR206
same,pIC50,[5],4.61
same,pIC50,[6]; 72 h,4.60
same,pIC50,[7],4.58
same,induction of cell death,[8],< 90%
same,pIC50,[9]; 72 h,4.82
same,"effect on viability, comparison between cell lines","[9]; LY19, MTS, 72 h incubation",more potent effect on LY19
same,pIC50,[10]; 72 h,4.57
same,pIC50,[11]; 72 h,4.51
same,induction of cell death,"[11]; LR, drug concentration 50 μM, MTS, 72 h",< 90%
same,pIC50,[12]; 72 h,4.59
same,inhibition at 50 µM,[13],> 50%
same,pIC50,[14]; 72 h,4.49
same,pIC50,"[15]; LY10, 72 h",4.60
same,cell viability in MCL cell lines,[16],reduction of cell viability
same,cell viability of DLBCL,[17],markedly decreased viability
same,pIC50,[18],4.66
same,pIC50,[19]; read-out: IC50 on cell viability,4.63
same,induction of cell death,"[19]; MS, drug concentration 50 μM, MTS",< 90%
C=CC(=O)N1CCC[C@@H](n2nc(-c3ccc(Oc4ccccc4)cc3)c3c(N)ncnc32)C1 [ibrutinib],pIC50,"[2]; CJ, MTS, 72 h incubation",4.60
same,pIC50,"[3]; HB, MTS, 72 h incubation",4.70
same,pIC50,"[4]; EJ, MTS, 72 h incubation",4.52
same,pIC50,[5]; average over the 13 DLBCL cell lines of Table 5,4.80
same,pIC50,"[6]; Ly-3, MTS, 72 h incubation",4.70
same,pIC50,[7],4.82
same,pIC50,"[9]; LY19, MTS, 72 h incubation",5.00
same,pIC50,"[10]; LP, MTS, 72 h incubation",5.22
same,pIC50,"[11]; LR, MTS, 72 h incubation",4.70
same,pIC50,"[12]; WP, MTS, 72 h incubation",6.00
same,pIC50,"[14]; HF, MTS, 72 h incubation",4.74
same,pIC50,"[15]; LY10, LY-10, MTS, 72 h incubation",6.30
CN1CCCCC1Cn1cc(C(=O)c2cc([N+](=O)[O-])ccc2I)c2ccccc21 (centres unmarked) [AM 1241],effect on the viability of DLBCL cancer cell lines,[5]; MTS,significant effect
"C=C(C)[C@@H]1CCC(C)=C[C@H]1c1c(O)cc(CCCCC)cc1O [CBD, cannabidiol]",concentration giving complete cell death,[20],25 µM
same,pIC50,[21],4.70 to 4.82
same,pIC50,[22],4.70 to 4.82
same,concentration with significant apoptosis induction in cleaved PARP expression,[1],12.5 µM
same,pIC50,[23],4.70 to 4.82
same,concentration giving complete cell death,[24],50 µM
same,concentration giving complete cell death,[25],50 µM and 25 µM
same,pIC50,[25]; [37],4.70 to 4.82
same,sensitivity of MCL cancer cells,[26],less sensitive
same,viability response compared with VYR206,"[5]; LY19 and LR, alone and in combination, MTS, 72 h",generally the same response as VYR206
same,concentration giving complete cell death,[27],50 µM
same,pIC50,[27]; [37],4.70 to 4.82
same,"viability, agents individually",[28],modest reduction in viability
same,concentration with significant apoptosis induction in cleaved PARP expression,[29],12.5 µM
same,cleaved caspases 3 and cleaved PARP,[29]; increasing concentration,concentration-dependent increase
same,concentration giving complete cell death,[30],50 µM
same,pIC50,[30]; [37],4.70 to 4.82
same,concentration giving complete cell death,[31],50 µM
same,concentration giving complete cell death,[32],50 µM
same,CB2 expression,[33],modulation
same,susceptibility,[34],less susceptible
same,cell viability,[35],90%
same,concentration giving complete cell death,[36],50 µM
same,pIC50,[36]; [37],4.70 to 4.82
"CCNC1(C(N)=O)CCN(c2ncnc3c2nc(-c2ccccc2Cl)n3-c2ccc(Cl)cc2)CC1 [CP945,598]",effect on the viability of DLBCL cancer cell lines,[5]; MTS,significant results depending on the specific cell line
